ChEMBL document CHEMBL4007424, “Design and Synthesis of Enantiomerically Pure Decahydroquinoxalines as Potent and Selective κ-Opioid Receptor Agonists with Anti-Inflammatory Activity in Vivo” (J Med Chem, 2017)
Calls of active or inactive are those of the source. The calls are words filed in the database; no cut-off is given here.

Assays:
[1] = test system: Mus musculus; assay: (§1) Antiinflammatory activity in oxazolone-induced delayed type hypersensitivity BALB/c mouse model assessed as reduction in edema formation at 0.5 and 2.5 mg applied topically on ear administered 3 hrs prior to oxazolone challenge on day 7 to 12 post sensitization followed by re-administration of compound on day 13 to 18 without oxazolone challenge measured on day 19 by H and E staining based assay; format: functional
[2] = test system: Mus musculus; assay: as §1, with “ear thickness” for “reduction in edema formation”, “0.5” for “0.5 and 2.5”, “9 to 15” for “19 by H and E staining based assay”; format: functional
[3] = test system: Mus musculus; assay: as §1, with “effect on ear thickness” for “reduction in edema formation”; format: functional
[4] = test system: Mus musculus; assay: Antiinflammatory activity in tropically applied arachidonic acid-induced ear dermatitis ICR mouse model assessed as reduction in ear swelling administered 30 mins prior and 15 mins after arachidonic acid addition measured 60 mins post arachidonic acid challenge; format: functional
[5] = organism: Sus scrofa; assay: Displacement of [3H]-(+)-MK 801 from PCP binding site of NMDA receptor in pig brain cortex membranes at 10 uM after 120 mins by solid scintillation counting; format: cell membranes
[6] = test system: Mus musculus; assay: as §1, with “ear thickness” for “reduction in edema formation”, “at” for “at 0.5 and”, “9 to 15” for “19 by H and E staining based assay”; format: functional
[7] = test system: Mus musculus; assay: as §1, with “effect on ear weight” for “reduction in edema formation”, “19” for “19 by H and E staining based assay”; format: functional
[8] = test system: Mus musculus; assay: as §1, with “hyperplastic epidrmis” for “reduction in edema formation”; format: functional
[9] = test system: Mus musculus; assay: as §1, with “as ear thickness” for “as reduction in edema formation”, “0.5” for “0.5 and 2.5”, “measured after” for “measured on”, “day 16” for “day 19 by H and E staining based assay”; format: functional
[10] = test system: Mus musculus; assay: Antiinflammatory activity in arachidonic acid-induced ear dermatitis ICR mouse model assessed as reduction in ear swelling at 0.1 mg administered twice tropically 30 mins prior and 15 mins after arachidonic acid addition measured 60 mins post arachidonic acid challenge relative to control; format: functional
[11] = test system: Mus musculus; assay: Antiinflammatory activity in arachidonic acid-induced ear dermatitis ICR mouse model assessed as reduction in ear swelling at 3 mg administered twice tropically 30 mins prior and 15 mins after arachidonic acid addition measured 60 mins post arachidonic acid challenge relative to control; format: functional
[12] = test system: Mus musculus; assay: Antiinflammatory activity in arachidonic acid-induced ear dermatitis ICR mouse model assessed as reduction in ear swelling at 3 mg administered tropically 30 mins prior and 15 min after arachidonic acid addition measured 60 mins post arachidonic acid challenge relative to control; format: functional
[13] = biological target: Mu-type opioid receptor (Cavia porcellus, UniProt P97266); assay: Displacement of [3H]DAMGO from mu-type opioid receptor in guinea pig brain membranes after 120 mins by solid scintillation counting; format: cell membranes, Membrane
[14] = Displacement of [3H]-(+)-MK 801 from PCP binding site of NMDA receptor in pig brain cortex membranes after 120 mins by solid scintillation counting; format: cell membranes, Sus scrofa
[15] = Displacement of [3H]DPDPE from delta-type opioid receptor in guinea pig brain membranes after 120 mins by solid scintillation counting; format: cell membranes, Cavia porcellus, Membrane
[16] = biological target: Kappa-type opioid receptor (Homo sapiens, UniProt P41145); assay: Agonist activity at recombinant human kappa-type opioid receptor expressed in HEK293 cells after 30 mins by [35S]GTPgammaS binding assay; format: functional, cell-based
[17] = biological target: Kappa-type opioid receptor (Cavia porcellus, UniProt P41144); assay: Displacement of [3H]U-69,593 from kappa-type opioid receptor in guinea pig brain membranes after 120 mins by solid scintillation counting; format: cell membranes, Membrane
[18] = Ratio of drug level in brain to plasma in Wistar Han rat at 5 mg/kg, iv after 1 hr; format: ADME, organism-based; details: read-out: BPR
[19] = test system: Rattus norvegicus; assay: Toxicity in Wistar Han rat assessed as clinical signs changes at 1 mg/kg, iv after 1 hr; format: organism-based; details: in vivo
[20] = test system: Brain; assay: Drug level in Wistar Han rat brain at 1 mg/kg, iv measured 1 hr post compound administration; format: ADME, organism-based; details: in vivo, 1 h, BLD = below limit of detection
[21] = Plasma concentration in Wistar Han rat at 1 mg/kg, iv measured 0.25 hrs post compound administration; format: ADME, organism-based
[22] = Plasma concentration in Wistar Han rat at 5 mg/kg, iv measured 1 hr post compound administration; format: ADME, organism-based
[23] = Plasma concentration in Wistar Han rat at 1 mg/kg, iv measured 1 hr post compound administration; format: ADME, organism-based
[24] = test system: Rattus norvegicus; assay: Toxicity in Wistar Han rat assessed as assessed as clinical signs changes at 5 mg/kg, iv after 1 hr; format: organism-based; details: in vivo
[25] = Plasma concentration in Wistar Han rat at 5 mg/kg, iv measured 0.25 hrs post compound administration; format: ADME, organism-based
[26] = Drug level in Wistar Han rat brain at 5 mg/kg, iv measured 1 hr post compound administration; format: ADME, organism-based; details: read-out: Drug uptake

Sequence of Kappa-type opioid receptor (Homo sapiens, UniProt P41145) (P41145 whole entry): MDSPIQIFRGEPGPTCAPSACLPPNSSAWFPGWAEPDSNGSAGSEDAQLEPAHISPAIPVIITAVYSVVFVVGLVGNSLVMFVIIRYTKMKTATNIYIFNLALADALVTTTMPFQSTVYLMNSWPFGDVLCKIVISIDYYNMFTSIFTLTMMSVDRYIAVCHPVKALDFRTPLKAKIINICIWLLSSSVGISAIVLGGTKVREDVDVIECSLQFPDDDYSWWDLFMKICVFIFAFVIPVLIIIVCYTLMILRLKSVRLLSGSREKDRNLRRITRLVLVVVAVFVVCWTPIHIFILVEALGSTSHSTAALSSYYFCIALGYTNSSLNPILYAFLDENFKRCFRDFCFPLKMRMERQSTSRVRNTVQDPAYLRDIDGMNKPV
Sequence of Kappa-type opioid receptor (Cavia porcellus, UniProt P41144) (P41144 whole entry): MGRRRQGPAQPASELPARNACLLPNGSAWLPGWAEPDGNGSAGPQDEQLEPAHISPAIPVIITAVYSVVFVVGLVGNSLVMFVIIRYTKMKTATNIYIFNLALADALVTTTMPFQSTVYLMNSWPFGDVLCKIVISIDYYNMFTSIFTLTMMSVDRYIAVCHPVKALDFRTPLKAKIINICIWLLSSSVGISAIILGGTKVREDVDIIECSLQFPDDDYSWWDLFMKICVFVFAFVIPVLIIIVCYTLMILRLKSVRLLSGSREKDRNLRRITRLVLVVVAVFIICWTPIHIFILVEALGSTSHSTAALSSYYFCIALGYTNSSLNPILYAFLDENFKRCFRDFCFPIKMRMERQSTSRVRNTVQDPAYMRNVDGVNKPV
Sequence of Mu-type opioid receptor (P97266 whole entry): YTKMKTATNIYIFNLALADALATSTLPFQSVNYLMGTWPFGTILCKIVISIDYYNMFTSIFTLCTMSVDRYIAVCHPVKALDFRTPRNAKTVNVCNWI

Compound: COC(=O)N1CCN(C(=O)Cc2ccc(Cl)c(Cl)c2)[C@@H]2[C@@H](N3CCCC3)CCC[C@@H]21
- Activity [1]: Active
- Activity [2]: inactive
- Activity [3]: inactive
- Activity [4]: Dose-dependent effect
- inhibition [5]: 2%
- Activity [6]: Active
- Activity [7]: inactive
- Activity [8]: Active
- Activity [9]: inactive

Compound: COc1ccc2c(c1)c(CC(=O)O)c(C)n2C(=O)c1ccc(Cl)cc1 [INDOMETHACIN]
- inhibition (INH) [10]: 38 - 65%
- inhibition (INH) [11]: 38 - 65%
- inhibition (INH) [12]: 38%

Compound: CN(C)S(=O)(=O)N1CCN(C(=O)Cc2ccc(Cl)c(Cl)c2)[C@@H]2[C@@H](N3CCCC3)CCC[C@@H]21
- Ki [13]: 21 nM
- Ki [14]: 2500 nM
- Ki [15]: 11 nM
- EC50 [16]: 2.2 nM
- Ki [17]: 0.95 nM

Compound: COC(=O)N1CCN(C(=O)Cc2ccc(Cl)c(Cl)c2)[C@@H]2[C@@H](N3CC[C@H](O)C3)CCC[C@@H]21.Cl
- Kp at 1 h [18]: 0.11
- Activity [19]: Non-Toxic
- Drug uptake [20]: Bld
- concentration at 0.25 h [21]: 599 ng/mL
- concentration at 1 h [22]: 669 ng/mL
- concentration at 1 h [23]: 128 ng/mL
- Activity [24]: Non-Toxic
- concentration at 0.25 h [25]: 1440 ng/mL
- concentration at 1 h [26]: 74.1 ng/g
